Data on one substance can be found in patent publication US8124579B2, “Heat shock protein 20-related polypeptides and uses therefor” (Arizona Board of Regents, priority 2003, dated 2012).

In the assay the test system is Swiss 3T3 cells. The assay can be described thus: Actin stress fibers and cell morphology, phalloidin staining. Type of assay: cell-based. The settings on record: peptides 25 μM, forskolin and lysophosphatidic acid 10 μM, serum 10%, 30 minutes, phalloidin stain. Here is the method:
Unless otherwise stated, all reagents were purchased from Sigma, St. Louis, Mo. Swiss Albino 3T3 fibroblasts (ATCC, Manassas, Va.) were cultured in DMEM supplemented with 10% BCS, 4 mM L-glutamine and 50 μg/ml penicillin-streptomycin and maintained at 37° C., 5% CO2. Cells were seeded and cultured overnight. Culture media was replaced with DMEM containing 0.5% BCS 1 hour prior to experimentation. Cells were incubated with the peptide analogues or reagent (LPA or forskolin) diluted in DMEM containing 0.5% BCS, 30 minutes at 37° C. Cells were then fixed in 4% paraformaldehyde, permeabilized in 0.25% Triton X-100, and blocked with 1% BSA solution for 1 hour. To determine α-actin cytoskeletal distribution, treated cells were incubated with Alexa 568 phalloidin (Molecular Probes, Eugene, Oreg.) in 1% BSA, 30 min. To determine focal adhesion protein localization, treated cells were incubated with primary monoclonal antibodies for α-actinin (1:100, Upstate, Charlottesville, Va.), vinculin (1:100, Sigma) or paxillin (1:100, BD Bioscience-Transduction Labs, San Jose, Calif.) in 1% BSA solution for 2 hours, rinsed in PBS and incubated 60 minutes with Cy3-goat IgG secondary antibody (Jackson ImmunoResearch, West Grove, Pa.). Slides were mounted and analyzed by confocal microscopy (Leica TCS SP2, Bannockburn, Ill.). […]

Take lysophosphatidic acid: the “stress fibers and cell morphology” value is given as “displayed robust stress fibers”.
